Activity, uptake ratio and Km data for six compounds are collected here from ChEMBL document CHEMBL3526039, “Electrophysiological characterization of the polyspecific organic cation transporter plasma membrane monoamine transporter” (Drug Metab Dispos, 2012).

For orientation: Km means the concentration of substrate that gives half-maximal velocity.

Molecules are shown by their SMILES.

Data set [1] has as its target T1, Equilibrative nucleoside transporter 4 (Homo sapiens, UniProt Q7RTT9).
T1 sequence (Q7RTT9 whole entry): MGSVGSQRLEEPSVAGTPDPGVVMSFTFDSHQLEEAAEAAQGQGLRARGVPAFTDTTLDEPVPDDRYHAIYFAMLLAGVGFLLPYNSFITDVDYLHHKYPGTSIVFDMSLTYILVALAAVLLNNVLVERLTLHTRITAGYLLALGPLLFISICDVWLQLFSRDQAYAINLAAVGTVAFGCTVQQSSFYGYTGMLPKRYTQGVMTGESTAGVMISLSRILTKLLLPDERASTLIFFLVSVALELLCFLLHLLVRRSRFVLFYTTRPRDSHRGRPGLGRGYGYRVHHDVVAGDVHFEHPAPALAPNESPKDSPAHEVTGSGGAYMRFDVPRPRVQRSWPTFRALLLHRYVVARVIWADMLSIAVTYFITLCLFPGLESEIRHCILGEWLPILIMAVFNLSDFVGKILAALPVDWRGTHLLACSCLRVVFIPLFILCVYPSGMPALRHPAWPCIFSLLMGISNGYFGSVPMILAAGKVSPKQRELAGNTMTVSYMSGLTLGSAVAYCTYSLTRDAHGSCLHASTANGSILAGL
As to the kind of experiment: Induction of human PMAT activity expressed in Xenopus laevis oocytes assessed as induction of inward current at 2.5 mM in NaCl buffer at pH 6 by two-microelectrode voltage-clamp method. The class given is cell-based. Particulars: pH 6, 2500 µM.

The target in data set [2] is T1, Equilibrative nucleoside transporter 4. As to the kind of experiment: Induction of human PMAT activity expressed in Xenopus laevis oocytes assessed as induction of inward current at 2.5 mM in NaCl buffer at pH 7.5 by two-microelectrode voltage-clamp method. The class given is cell-based. Particulars: pH 7.5, 2500 µM.
In data set [3] the target is T2, PMAT (equilibrative nucleoside transporter 4) (Homo sapiens, UniProt Q7RTT9).
T2 sequence (Q7RTT9 whole entry): T1 sequence (Q7RTT9 whole entry)
As to the kind of experiment: Increase of human PMAT-mediated drug uptake expressed in Xenopus laevis oocytes in NaCl buffer at pH 6 at 100 uM after 60 mins relative to control. Particulars: Xenopus laevis oocytes expressing human PMAT.

Data set [4] concerns the target T2, PMAT (equilibrative nucleoside transporter 4). Nature of the data set: in vitro. The following applies: not told, pH 6.
Data set [5] shares this target. Nature of the data set: in vitro. Particulars: not told, pH 6. This is another data set of the same source.

Consider `CN(C)C(=N)N=C(N)N` [METFORMIN], for which the Activity was -38 nanoampere in data set [1] and -2.02 nanoampere in data set [2].
In the same order, the values of `CN1CC=C(c2ccccc2)CC1` are -62.7 nanoampere and -5.67 nanoampere.
With `NCCc1c[nH]cn1` [HISTAMINE], the Activity was -110 nanoampere in data set [1] and -30.5 nanoampere in data set [2]. Further, the uptake ratio at 1 h, 100 µM in data set [3] amounted to 2. Also, the Km in data set [4] and in data set [5] was 10 mM in each case.
On to `CN1CCC[C@H]1c1cccnc1` [NICOTINE], for which the results for the Activity in data set [1] and in data set [2] were -75.7 nanoampere and -6.3 nanoampere, respectively.
In the same order, the values of `CC[N+](CC)(CC)CC` [TETRYLAMMONIUM] are -11.7 nanoampere and -0.627 nanoampere.
In the same order, the values of `NC12CC3CC(CC(C3)C1)C2` [AMANTADINE] are -21.2 nanoampere and -7.26 nanoampere.
